Results on one compound are retold here after PMC6333442, “Conserved allosteric pathways for activation of TRPV3 revealed through engineering vanilloid-sensitivity” (eLife, 2019).

Substitutions are numbered along the chain they refer to.

The target in one assay is T1, TRPV3-6M + V587L (Mus musculus, UniProt Q8K424, A560T/F522S/H523E/L557M/Q580E/V587L/W521Y).
T1 construct: expressed in transfected cells; host or cells: Xenopus laevis oocytes
T1 sequence (Q8K424 1-791 W521Y/F522S/H523E/L557M/A560T/Q580E/V587L): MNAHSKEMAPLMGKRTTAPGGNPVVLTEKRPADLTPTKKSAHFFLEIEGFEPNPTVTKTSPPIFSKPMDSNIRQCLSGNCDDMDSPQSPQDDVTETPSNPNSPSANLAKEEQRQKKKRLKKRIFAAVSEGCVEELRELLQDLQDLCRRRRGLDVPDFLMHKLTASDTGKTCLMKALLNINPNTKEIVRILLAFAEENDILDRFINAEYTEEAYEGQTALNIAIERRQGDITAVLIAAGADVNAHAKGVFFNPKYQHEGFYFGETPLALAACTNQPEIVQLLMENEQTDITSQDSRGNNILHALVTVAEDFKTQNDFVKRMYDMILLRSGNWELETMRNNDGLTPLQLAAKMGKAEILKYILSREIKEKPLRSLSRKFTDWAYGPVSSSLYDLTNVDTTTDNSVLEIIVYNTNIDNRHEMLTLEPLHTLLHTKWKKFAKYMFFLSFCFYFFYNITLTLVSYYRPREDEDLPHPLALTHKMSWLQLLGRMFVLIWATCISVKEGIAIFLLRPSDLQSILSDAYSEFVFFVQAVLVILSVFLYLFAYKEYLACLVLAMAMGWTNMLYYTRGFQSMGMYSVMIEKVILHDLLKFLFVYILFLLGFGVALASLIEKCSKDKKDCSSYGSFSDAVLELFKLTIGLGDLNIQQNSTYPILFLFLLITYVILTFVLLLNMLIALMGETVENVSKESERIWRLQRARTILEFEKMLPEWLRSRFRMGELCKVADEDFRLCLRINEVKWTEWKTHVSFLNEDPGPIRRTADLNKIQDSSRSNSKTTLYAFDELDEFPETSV
As to the kind of experiment: Two-electrode voltage clamp, TRPV3-6M + V587L, RTx concentrations. In kind it is cell-based. The procedure: All channel constructs were expressed in Xenopus laevis oocytes and studied using the two-electrode voltage clamp technique (TEVC) following 1–4 days of incubation after cRNA injection. The animal care and experimental procedures were performed in accordance with the Guide for the Care and Use of Laboratory Animals and were approved by the Animal Care and Use Committee of the National Institute of Neurological Disorders and Stroke (Animal protocol number 1253–17). Oocytes were removed surgically and incubated with agitation for 1 hr in a solution containing (in mM) 82.5 NaCl, 2.5 KCl, 1 MgCl2, 5 HEPES, pH 7.6 (with NaOH), and collagenase (2 mg/ml; Worthington Biochemical, Lakewood, NJ). Defolliculated oocytes were injected with cRNA for each of the constructs and incubated at 17°C in a solution containing (in mM) 96 NaCl, 2 KCl, 1 MgCl2, 1.8 CaCl2, 5 HEPES, pH 7.6 (with NaOH), and gentamicin (50 μg/ml, GIBCO-BRL, Gaithersburg, MD). Oocyte membrane voltage was controlled using an OC-725C oocyte clamp (Warner Instruments, Hamden, CT). Data were filtered at 1–3 kHz and digitized at 20 kHz using pClamp software (Molecular Devices, Sunnyvale, CA) and a Digidata 1440A digitizer (Axon Instruments). Microelectrode resistances were 0.1–1 MΩ when filled with 3 M KCl. For recording TRP channel currents, the external recording solution contained (in mM) 100 KCl, 10 HEPES, pH 7.6 (with KOH). […]
On the technique in general: In two-electrode clamp one electrode senses voltage and the other passes current.

A further assay addresses T2, TRPV3-6M + 5PM (Mus musculus, UniProt Q8K424, A560T/A606V/F522S/F625L/F656I/F666Y/H523E/L557M/Q580E/V587L/W521Y).
T2 construct: expressed in transfected cells; host or cells: Xenopus laevis oocytes
T2 sequence (Q8K424 1-791 W521Y/F522S/H523E/L557M/A560T/Q580E/V587L/A606V/F625L/F656I/F666Y): T1 sequence (Q8K424 1-791 W521Y/F522S/H523E/L557M/A560T/Q580E/V587L) with A606V, F625L, F656I, F666Y
As to the kind of experiment: Two-electrode voltage clamp, TRPV3-6M + 5PM in oocytes. In kind it is cell-based. As for the experimental part:
All channel constructs were expressed in Xenopus laevis oocytes and studied using the two-electrode voltage clamp technique (TEVC) following 1–4 days of incubation after cRNA injection. The animal care and experimental procedures were performed in accordance with the Guide for the Care and Use of Laboratory Animals and were approved by the Animal Care and Use Committee of the National Institute of Neurological Disorders and Stroke (Animal protocol number 1253–17). Oocytes were removed surgically and incubated with agitation for 1 hr in a solution containing (in mM) 82.5 NaCl, 2.5 KCl, 1 MgCl2, 5 HEPES, pH 7.6 (with NaOH), and collagenase (2 mg/ml; Worthington Biochemical, Lakewood, NJ). Defolliculated oocytes were injected with cRNA for each of the constructs and incubated at 17°C in a solution containing (in mM) 96 NaCl, 2 KCl, 1 MgCl2, 1.8 CaCl2, 5 HEPES, pH 7.6 (with NaOH), and gentamicin (50 μg/ml, GIBCO-BRL, Gaithersburg, MD). Oocyte membrane voltage was controlled using an OC-725C oocyte clamp (Warner Instruments, Hamden, CT). Data were filtered at 1–3 kHz and digitized at 20 kHz using pClamp software (Molecular Devices, Sunnyvale, CA) and a Digidata 1440A digitizer (Axon Instruments). Microelectrode resistances were 0.1–1 MΩ when filled with 3 M KCl. For recording TRP channel currents, the external recording solution contained (in mM) 100 KCl, 10 HEPES, pH 7.6 (with KOH). Experiments were performed at room temperature (~22°C), except as indicated otherwise. […] Current time courses were obtained by stepping membrane voltage every 2 s from a holding potential of 0 mV to either −60 or +60 mV for 100 ms, and plotting the mean steady-state current at the end of each voltage step as a function of total recording time. I-V relations were obtained similarly, but voltage was stepped every 2 s to a different value, in 10 mV increments and starting at −60 mV.

Consider `C=C(C)[C@]12C[C@@H](C)[C@@]34O[C@](Cc5ccccc5)(O[C@@H]1[C@@H]3C=C(COC(=O)Cc1ccc(O)c(OC)c1)C[C@]1(O)C(=O)C(C)=C[C@@H]41)O2` [RTx, resiniferatoxin], for which the “dissociation of RTx” value on TRPV3-6M + V587L and at TRPV3-6M + 5PM was “exceedingly slow” in each case. The “response to RTx compared with maximal response to 2-APB” value on TRPV3-6M + 5PM (RTx 100 nM, 2-APB 3 mM, +60 mV) is “similar”.
